Source: patent publication US5256788A, “Moranoline derivatives and their production and the use of moranoline and its derivatives as a stabilizing agent for enzymes” (Nippon Shinyaku Co. Ltd., priority 1989, dated 1993)

Legend:
β-glucosidase = test: Stabilization of β-glucosidase by moranoline and N-methylmoranoline; type: biochemical; conditions: 6 mg/ml of the hydrochloride, kept at 60° C.
Protocol: Test samples were (1) 1 ml of 0.2M buffer solution of β-glucosidase (300 μg/ml) alone, (2) 1 ml of 0.2M buffer solution of β-glucosidase (300 μg/ml) supplemented with 6 mg/ml of moranoline hydrochloride and, (3) 1 ml of 0.2M buffer solution of β-glucosidase (300 μg/ml) supplemented with 6 mg/ml of N-methylmoranoline hydrochloride. These test samples were kept at 60° C. and the residual enzyme activity was measured with passage of time.
For determination of the enzyme activity, there was used a method measuring absorbancy at 400 nm using […] as a substrate.
That is, 200 μl of 0.014M p-nitrophenyl-β-D-glucoside, 200 μl of the enzyme solution taken from each sample for sampling with passage of time which was appropriately diluted, and 600 μl of 0.2M acetate buffer solution (pH 4.5) were reacted at 30° C. for 15 minutes. After 2 ml of 0.1M disodium carbonate was added thereto to terminate the reaction, a color was formed and the color was measured at 400 nm. When absorbancy at the initiation of the reaction was made 100, relative absorbancy in each time was defined to be residual activity.

glucoamylase = target: T1, glucoamylase (Rhizopus arrhizus, UniProt P07683); test: Stabilization of GA (aqueous solution) by moranoline, N-methylmoranoline; type: biochemical, Rhizopus niveus
T1 construct: maltose substrate
Protocol: As the enzyme, Rhizopus niveus-derived reagent glucoamylase manufactured by Seikagaku Kogyo Co., Ltd. was used.
After 5 mg of the enzyme was dissolved in 1 ml of 0.1M acetate buffer solution (pH 5.0), moranoline and N-methylmoranoline were dissolved in the solution in a concentration of 6000 μg/ml. The solution was charged in a test tube with a screw stopper followed by incubation at 50° C. Each enzyme solution was diluted with 0.1M acetate buffer solution (pH 5.0) to 100-fold and 100 μl of the dilution was taken. After 400 μl of 5% maltose solution (0.05M acetate buffer solution, pH 4.6) was added thereto, the mixture was reacted at 40° C. for 20 minutes. […] Thereafter, the system was ice cooled and absorbency was measured at 500 nm to determine the glucose amount. […] When the initial enzyme activity (amount of glucose produced) was made […], relative enzyme activity was determined. […]
After 5 mg of the enzyme was dissolved in 1 ml of 0.1M acetate buffer solution (pH 5.0), moranoline and N-methylmoranoline were dissolved in the solution in a concentration of 6000 μg/ml. […] Thereafter, the system was ice cooled and absorbancy was measured at 500 nm to determine the glucose amount. […] When the initial enzyme activity (amount of glucose produced) was made 100, relative enzyme activity was determined. […]

immobilized CGTase = target: T2, immobilized CGTase (Geobacillus stearothermophilus, UniProt P31797); test: Stabilization of immobilized CGTase, sugar transfer continuous reaction of N-methylmoranoline; type: biochemical, Bacillus stearothermophilus; conditions: 3360 h; after 140 days, 55° C., 1.5 w/v% N-methylmoranoline and 9 w/v% soluble starch, 160 ml/day; read-out: activity retained
T2 construct: purchased Hayashibara Biochemical Research Institute
T2 sequence (P31797 32-711): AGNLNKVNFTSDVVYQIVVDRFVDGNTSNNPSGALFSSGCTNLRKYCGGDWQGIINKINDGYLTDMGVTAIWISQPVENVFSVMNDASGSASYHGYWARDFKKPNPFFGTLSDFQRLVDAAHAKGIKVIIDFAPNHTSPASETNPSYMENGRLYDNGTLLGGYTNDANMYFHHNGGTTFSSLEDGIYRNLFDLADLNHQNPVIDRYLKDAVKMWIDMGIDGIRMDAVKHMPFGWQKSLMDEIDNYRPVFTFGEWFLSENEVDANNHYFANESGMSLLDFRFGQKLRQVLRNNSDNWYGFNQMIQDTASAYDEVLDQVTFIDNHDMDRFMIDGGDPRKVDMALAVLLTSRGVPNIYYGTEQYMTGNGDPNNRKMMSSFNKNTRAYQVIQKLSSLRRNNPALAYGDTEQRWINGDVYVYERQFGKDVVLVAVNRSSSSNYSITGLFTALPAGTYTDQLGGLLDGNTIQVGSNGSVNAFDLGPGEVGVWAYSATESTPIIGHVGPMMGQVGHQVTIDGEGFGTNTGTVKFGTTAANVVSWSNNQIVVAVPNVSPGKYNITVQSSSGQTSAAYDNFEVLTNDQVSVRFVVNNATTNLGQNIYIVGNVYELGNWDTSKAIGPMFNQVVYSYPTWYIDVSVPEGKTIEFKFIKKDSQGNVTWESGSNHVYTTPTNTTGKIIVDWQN
Protocol: (§1) The immobilized CGTase, 20 ml, obtained in Reference Example 1 was packed in a column having a diameter of 1 cm equipped with a jacket and a solution with the pH being not adjusted containing 1.5 w/v% of N-methylmoranoline and 9 w/v% of soluble starch was continuously passed through the column at 55° C. in a passing velocity of 160 ml/day to react them, whereby the reaction progress rate of the passing liquid was determined with passage of time. The reaction progress rate and activity retention rate were determined in a manner similar to Reference 4. The results reveal that even after 140 days, almost 100% of the activity was retained.
as §1, with “Example A” for “Example 1”, “to Example 27.” for “to Reference 4. The results reveal that even after 140 days, almost 100% of the activity was retained.”

T1 sequence (P07683 26-604): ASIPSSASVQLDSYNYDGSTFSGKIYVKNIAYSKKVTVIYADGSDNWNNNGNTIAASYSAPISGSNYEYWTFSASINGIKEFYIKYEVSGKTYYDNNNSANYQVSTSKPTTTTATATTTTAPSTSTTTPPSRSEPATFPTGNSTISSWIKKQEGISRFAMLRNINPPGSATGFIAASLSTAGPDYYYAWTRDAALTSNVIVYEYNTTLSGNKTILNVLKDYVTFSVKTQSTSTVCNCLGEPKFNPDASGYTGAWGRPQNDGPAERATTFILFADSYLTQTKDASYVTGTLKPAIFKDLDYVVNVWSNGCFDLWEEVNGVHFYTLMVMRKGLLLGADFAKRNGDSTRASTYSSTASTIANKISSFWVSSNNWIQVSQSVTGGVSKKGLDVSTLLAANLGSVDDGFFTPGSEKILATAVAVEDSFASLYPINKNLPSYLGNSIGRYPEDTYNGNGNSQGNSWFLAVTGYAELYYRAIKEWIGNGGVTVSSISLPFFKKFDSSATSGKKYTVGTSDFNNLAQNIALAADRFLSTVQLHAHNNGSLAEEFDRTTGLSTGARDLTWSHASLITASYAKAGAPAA

## CN1C[C@H](O)[C@@H](O)[C@H](O)[C@H]1CO [N-methylmoranoline]
β-glucosidase
  stabilizing effect (residual activity, FIG. 4): stabilizing effect
glucoamylase
  inhibition of the enzyme activity of glucoamylase: inhibit the enzyme activity of glucoamylase
Immobilized CGTase
  activity at 15000 µg/mL: ~100%
